This is an account of results in patent US20110053897A1 (IRM LLC, priority 2009, published 2011).

The first data set deals with T1, Syk kinase (Homo sapiens, UniProt P43405).
T1 construct: purchased
As to the kind of experiment: Selectivity for Syk kinase over other kinases, receptors, enzymes and transporters. The format is biochemical. The following applies: qualitative statement, values not given.
Regarding `CC(C)(C)Nc1nc(Nc2cc(C(C)(C)O)ncn2)cc2ccn(C3COC3)c(=O)c12` [compound 734], the “selectivity for Syk kinase over other kinases, as well as other receptors, enzymes and transporters” value was “improved Syk selectivity”.

The target in the next data set is T1, Syk kinase. As to the kind of experiment: Syk kinase inhibition, Caliper LabChip off-chip mobility-shift kinase assay. The format is biochemical. The note with it: Caliper LabChip assay; read-out: Syk Enzyme IC50. In outline:
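Purified Syk pre-incubated 15 min with compound in 100 mM HEPES pH 7.5, 1 mM DTT, 10 mM MgCl2 or MnCl2, 0.002% Brij-35, then 1.5 μM fluorescein peptide and ATP at apparent KM added; 1–1.5 h at room temperature, 4% DMSO, EDTA stop. Microfluidic mobility-shift product/substrate conversion gave % inhibition; IC50 from 12-point series (10–0.00003 μM) by 4-parameter fit.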
For orientation: IC50 means the concentration needed to halve the response being measured. Take `CC(C)(C)Nc1nc(Nc2cc(C(C)(C)O)ncn2)cc2ccn(C3COC3)c(=O)c12` [compound 734]: the IC50 stood at 57 nM.

Turning to `CC(C)(C)Nc1nc(Nc2cnccn2)cc2ccn(C[C@@H](O)CO)c(=O)c12` [compound 668, (R)-8-(tert-butylamino)-2-(2,3-dihydroxypropyl)-6-(pyrazin-2-ylamino)-2,7-naphthyridin-1(2H)-one], the IC50 was 7 nM.

Consider `CCn1ccc2cc(Nc3cc(C(C)(C)O)ccn3)nc(NC3(CO)CCC3)c2c1=O` [compound 703], for which the half-inhibitory concentration (IC50) was determined as 85 nM.

On to `CC(C)(C)Nc1nc(Nc2cc(-c3ccn[nH]3)ccn2)cc2ccn(CCO)c(=O)c12` [compound 690, 6-(4-(1H-pyrazol-5-yl)pyridin-2-ylamino)-8-(tert-butylamino)-2-(2-hydroxyethyl)-2,7-naphthyridin-1(2H)-one], for which the half-maximal inhibitory concentration (IC50) was 67 nM.

For `CC(C)(C)Nc1nc(Nc2cc(C3CCN(CCO)CC3)ncn2)cc2ccn(CCO)c(=O)c12` [compound 640], the IC50 stood at 116 nM.

Regarding `CC1(Cn2ccc3cc(-c4cnc(N)nc4)nc(NC4CCC4)c3c2=O)COC1` [compound 771], the IC50 was 75 nM.

As for `CC(N)c1ccnc(Nc2cc3ccn(CCO)c(=O)c3c(NC(C)(C)C)n2)c1` (stereo not shown) [compound 712, 6-(4-(1-aminoethyl)pyridin-2-ylamino)-8-(tert-butylamino)-2-(2-hydroxyethyl)-2,7-naphthyridin-1(2H)-one], the IC50 stood at 53 nM.

For `CCn1ccc2cc(Nc3cc(C)ccn3)nc(N[C@@H]3CC[C@@H](CO)C3)c2c1=O` [compound 790], the 50% inhibitory concentration (IC50) was 88 nM.

On to `CC(C)(C)Nc1nc(Nc2cnccn2)cc2ccn(CCC#N)c(=O)c12` [compound 1004], for which the IC50 amounted to 19 nM.

With `CC(C)(C)Nc1nc(Nc2cc(C(C)(C)O)c(Cl)cn2)cc2ccn(CCO)c(=O)c12` [compound 728], the IC50 was 283 nM.

On to `CC(C)(C)Nc1nc(Nc2cc(C3=CCCCO3)ncn2)cc2ccn(CCO)c(=O)c12` [compound 624], for which the half-inhibitory concentration (IC50) was 590 nM.

As for `Cc1ccnc(Nc2cc3ccn(C(C)C)c(=O)c3c(NC(C)(C)C)n2)c1` [compound 821], the IC50 worked out at 272 nM.

Consider `CC(C)(C)Nc1nc(Nc2cc(-c3c[nH]nc3C(F)(F)F)ncn2)cc2ccn(CCO)c(=O)c12` [compound 635, 8-(tert-butylamino)-2-(2-hydroxyethyl)-6-(6-(3-(trifluoromethyl)-1H-pyrazol-4-yl)pyrimidin-4-ylamino)-2,7-naphthyridin-1(2H)-one], for which the IC50 amounted to 314 nM.

In the case of `Cc1ccnc(Nc2cc3ccn(CCN4CCOCC4)c(=O)c3c(NC(C)(C)C)n2)c1` [compound 997], the IC50 amounted to 296 nM.

Staying with this data set, now noted: read-out: Syk Enzyme IC50.
Consider `CCn1ccc2cc(Nc3cnc(C)cn3)nc(N[C@@H](C)CO)c2c1=O` [compound 394], for which the IC50 was 384 nM.

Turning to `Cc1ccnc(Nc2cc3cc[nH]c(=O)c3c(N[C@@H]3CCOC3)n2)c1` [compound 301], the IC50 was found to be 37 nM.

As to `CNC(=O)c1ccc(Nc2nc(Nc3cnccn3)cc3ccn(C)c(=O)c23)cc1` [compound 343], the IC50 was 333 nM.

For the molecule `Cc1ccc(Nc2cc3cc[nH]c(=O)c3c(Nc3ccc(N4CCO[C@H](C)C4)c(C)c3)n2)nc1` [compound 582], the concentration for half-maximal inhibition (IC50) amounted to 2220 nM.

`Nc1ncc(-c2cc3cc[nH]c(=O)c3c(NC3CCOC3)n2)cn1` (stereo not shown) [compound 185]: the 50% inhibitory concentration (IC50) amounted to 145 nM.

`COc1cncc(-c2cc3cc[nH]c(=O)c3c(Nc3ccc(C4CCN(C(C)C(=O)NCCO)CC4)c(C)c3)n2)n1` (stereo not shown) [compound 122]: the IC50 amounted to 92 nM.

Take `CC(C)N1CCC(c2cc3cc[nH]c(=O)c3c(Nc3ccc(N4CCOCC4)cc3)n2)CC1` [compound 3]: the IC50 came out at 202 nM.

As to `COCCN1CCC(c2ccc(Nc3nc(-c4ccc(C)nc4)cc4cc[nH]c(=O)c34)cc2C)CC1` [compound 47], the IC50 came to 12 nM.

In the case of `Cc1ccnc(Nc2cc3ccn(C)c(=O)c3c(N[C@H]3CCC[C@H]3O)n2)c1` (racemic) [compound 324], the IC50 was found to be 98 nM.

For the molecule `Cn1ccc2cc(Nc3cnccn3)nc(Nc3ccc(C4CCN(C5COC5)CC4)cc3)c2c1=O` [compound 346], the half-maximal inhibitory concentration (IC50) is 387 nM.

On to `Cn1ccc2cc(Nc3cnccn3)nc(N)c2c1=O` [compound 479], for which the IC50 came out at 599 nM.

For the molecule `COc1cncc(-c2cc3cc[nH]c(=O)c3c(Nc3ccc(C4CCN(C(C)C(=O)O)CC4)c(C)c3)n2)n1` (stereo not shown) [compound 117], the IC50 was found to be 22 nM.

On to `COc1cncc(-c2cc3cc[nH]c(=O)c3c(Nc3ccc(C4CCN(CC#N)CC4)c(C)c3)n2)n1` [compound 133], for which the IC50 was determined as 130 nM.

Consider `CC(C)Nc1nc(Nc2cc(-c3cnn(C)c3)ccn2)cc2cc[nH]c(=O)c12` [compound 595], for which the IC50 came to 87.9 nM.

As to `COc1cncc(-c2cc3cc[nH]c(=O)c3c(Nc3ccc(C4CCN(C(=O)C5CCOC5)CC4)c(C)c3)n2)n1` (stereo not shown) [compound 89], the IC50 worked out at 55 nM.

In the case of `Cc1ccc(-c2cc3cc[nH]c(=O)c3c(Nc3ccc(C4CCN(C5CC5)CC4)c(C)c3)n2)cn1` [compound 219], the concentration for half-maximal inhibition (IC50) was 89 nM.

As to `COCCN1CCN(c2n[nH]c3cc(Nc4nc(-c5cncnc5)cc5cc[nH]c(=O)c45)ccc23)CC1` [compound 214], the IC50 was 17 nM.

On to `COc1cncc(-c2cc3cc[nH]c(=O)c3c(Nc3ccc(C4CCN(C(=O)N5CCOCC5)CC4)c(C)c3)n2)n1` [compound 115], for which the IC50 worked out at 181 nM.

System in a further data set: not listed separately
As to the kind of experiment: Pharmacokinetic parameters (bioavailability, metabolic stability, half life, compound exposure). The note with it: qualitative statement, values not given.
Consider `CC(C)(C)Nc1nc(Nc2cnccn2)cc2ccn(C[C@@H](O)CO)c(=O)c12` [compound 668, (R)-8-(tert-butylamino)-2-(2,3-dihydroxypropyl)-6-(pyrazin-2-ylamino)-2,7-naphthyridin-1(2H)-one], for which the “pharmacokinetic parameters, such as bioavailablity, enhanced metabolic stability, half life and compound exposure” value is given as “improved pharmacokinetic parameters”.
